We go through 19 molecules from ChEMBL document CHEMBL1201862, “PubChem BioAssay data set” (2004).

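Assay format: 96-well plates, 48-hour exposure. Here, GI50 denotes the concentration required for 50% inhibition of growth.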 Activity calls are given as the source filed them. Cut-off read from the data, not from the text of the source: active = GI50 up to about 1.1 µM and inactive = higher. Non-standard residues stand in square brackets, D forms with d. Residues, ends and D or L forms follow the SMILES beside them.

The term GI50 denotes the concentration at which growth is held to half of that of the control.

Common to all, as to experiment: DTP human tumour cell line panel, 48 h
Assay [1] deals with XF498.
In assay [2] the test system is DLD-1.
Assay [3] concerns RXF 631.
The test system of assay [4] is KM-20L2.
Assay [5] relates to DMS-114.
The test system of assay [6] is DMS-273.
Assay [7] has as its system HOP-18.
Assay [8] deals with Hs-578T.
Assay [9] relates to PC-3.

With `COc1ccc2c(c1)[n+]([O-])c(-c1c(Cl)cccc1Cl)c(N)[n+]2[O-]`, the GI50 in assay [1] was 24.6 µM (inactive); in assay [2], 39.4 µM (inactive); in assay [3], 25.3 µM (inactive); in assay [4] it was 42.2 µM (inactive); in assay [5], 34.4 µM (inactive); in assay [6] it was 37.5 µM (inactive).
As for `CCOC(=O)NC1CC2CCC1(OC)C=C2C` (centres undefined), the GI50 in [1], in assay [7], in assay [2], in [4], in assay [5] and in assay [6] was > 100 µM (inactive) in each case.
In the case of `COc1cc2nncc(SCc3ccc(Cl)c(Cl)c3)c2cc1OC`, the GI50 was 21.5 µM (inactive) in assay [1]; > 100 µM (inactive) in assay [7]; 80 µM (inactive) in [8]; 72.1 µM (inactive) in assay [3]; 6.85 µM (inactive) in assay [4]; > 100 µM (inactive) in assay [9]. Moreover, the GI50 in [5] and in assay [6] was > 100 µM (inactive) in each case.
As for `Cc1noc(/N=C2\C=C(Nc3onc(C)c3C)C(=O)c3ccccc32)c1C`, the GI50 in [1] is > 100 µM (inactive); in [7], 85.9 µM (inactive); in assay [2], 96.8 µM (inactive); in [3], > 100 µM (inactive); in assay [4], > 100 µM (inactive); in [5], 15.3 µM (inactive). Also, the GI50 in assay [6] is > 100 µM (inactive).
Take `CC1=NOC(=O)C1/N=N/c1ccc(Br)c(C)c1` (centres undefined): the GI50 in [1] is 17.6 µM (inactive); in [7], 3.31 µM (inactive); in [2] it was 24.4 µM (inactive); in assay [4] it was 33.7 µM (inactive); in assay [5] it was 15.6 µM (inactive); in [6], 20.2 µM (inactive).
Consider `CC(C)C[C@H](NC(=O)[C@H](CC(C)C)NC(=O)[C@@H](Cc1c[nH]c2ccccc12)NC(=O)[C@H](Cc1ccccc1)NC(=O)[C@@H](Cc1c[nH]c2ccccc12)NC(=O)[C@H](CCC(N)=O)NC(=O)[C@H](CCC(N)=O)NC(=O)[C@H]1CCCN1C(=O)[C@@H](N)CCCCN)C(N)=O` (H-K[dP]QQ[dW]F[dW]LL-NH2), for which the GI50 in [1], in assay [7], in [2], in assay [4] and in [6] was > 100 µM (inactive) in each case.
Consider `O=C1C(c2ccc([N+](=O)[O-])cc2)=C(Cl)C(=O)c2c(O)cccc21`, for which the GI50 in assay [1] is 10.6 µM (inactive); in assay [7] it was 5.05 µM (inactive); in assay [8], 26.8 µM (inactive); in assay [2] it was 11 µM (inactive); in [9] it was 26.1 µM (inactive); in [5], 7.31 µM (inactive). Also, in assay [6], the GI50 is 28 µM (inactive).
For the molecule `COc1ccc(N2C(=O)[C@@H]3[C@@H]4CC(C)CC[C@@H]4c4c([nH]c5ccccc45)[C@@H]3C2=O)cc1` (some centres undefined), the GI50 in [1] is 8.3 µM (inactive); in [7], 4.4 µM (inactive); in assay [2] it was 29.5 µM (inactive); in [4], > 54.8 µM (inactive); in assay [5] it was 31.1 µM (inactive); in assay [6], 14.7 µM (inactive).
As for `O=C(CCN(C(=O)O)S(=O)(=O)c1ccc(NC(=O)c2ccccc2)cc1)NC1CCCCC1`, the GI50 in [1] is > 100 µM (inactive); in assay [7], > 100 µM (inactive); in assay [2], 62.5 µM (inactive); in assay [4], > 100 µM (inactive); in assay [5] it was > 100 µM (inactive); in assay [6] it was 21.7 µM (inactive).
On to `CCC1C(=O)OCc2c1cc1n(c2=O)C(CC)c2c-1nc1ccccc1c2Cl` (centres undefined), for which the GI50 is 24.8 µM (inactive) in assay [1]; 20.3 µM (inactive) in assay [7]; 35.2 µM (inactive) in [2]; 31.3 µM (inactive) in assay [4]; 7.85 µM (inactive) in assay [6].
On to `CC1=CC(C)(C)N=C2SC(c3ccc(N)cc3)=NN12`, for which the GI50 was 50.9 µM (inactive) in assay [1]; 1.47 µM (inactive) in [7]; 40.1 µM (inactive) in assay [2]; 50.7 µM (inactive) in assay [3]; 46.6 µM (inactive) in assay [4]; 32.7 µM (inactive) in assay [5]. In [6], the GI50 was > 42.9 µM (inactive).
In the case of `COc1ccc(OC(C(=O)O)C(C)C)c2c1CCCC2=O` (centres undefined), the GI50 in [1], in assay [7], in [2], in assay [3], in [4] and in assay [5] was > 100 µM (inactive) each time. In addition, in assay [6], the GI50 was > 100 µM (inactive).
Regarding `COc1cc([C@@H]2c3cc4c(cc3[C@@H](NC(=O)c3ccc(C(C)=O)cc3)C3COC(=O)[C@@H]32)OCO4)cc(OC)c1O` (some centres undefined), the GI50 in assay [1] was 0.347 µM (active); in assay [7], > 100 µM (inactive); in [2], 1.4 µM (inactive); in assay [3] it was 1.24 µM (inactive); in assay [4], 0.724 µM (active); in [5], 0.659 µM (active). Moreover, the GI50 in assay [6] is 0.0556 µM (active).
Regarding `CC1=C2O[B-](c3ccccc3)(c3ccccc3)[O+]=C2C=CN1`, the GI50 was 12.5 µM (inactive) in assay [1]; 33.4 µM (inactive) in assay [2]; 44.9 µM (inactive) in assay [3]; 62.1 µM (inactive) in [4]; 38.7 µM (inactive) in [5]; 45.9 µM (inactive) in assay [6].
With `CC1NC(=O)CC(c2ccccc2)N(N=O)C1c1ccccc1` (centres undefined), the GI50 in assay [1] was 25.8 µM (inactive); in assay [7], 52.2 µM (inactive); in [2] it was 44.8 µM (inactive); in [4], 21.4 µM (inactive); in [6] it was 26 µM (inactive).
With `CN(/N=C/c1cccc2cccnc12)c1ccccc1`, the GI50 in assay [1] was > 100 µM (inactive); in [7] it was > 100 µM (inactive); in assay [2] it was > 100 µM (inactive); in assay [4] it was > 100 µM (inactive); in assay [5] it was > 100 µM (inactive); in assay [6], 85.7 µM (inactive).
Regarding `CN1Cc2c(nc(-c3ccccc3)c[n+]2[O-])N(C)C1`, the GI50 in assay [1], in [7], in assay [2], in assay [3], in [4] and in assay [5] was > 100 µM (inactive) each time. Besides, the GI50 in assay [6] is > 100 µM (inactive).
For the molecule `CC(C)=CCCC(C)[C@H]1CC(O)C2(C)C3=CCC4C(C)(C)[C@@H](O)CC[C@]4(C)C3=CC[C@]12C` (some centres undefined), the GI50 is 8.34 µM (inactive) in [1]; 13.7 µM (inactive) in [7]; 3.87 µM (inactive) in assay [2]; 4.34 µM (inactive) in [3]; 6.58 µM (inactive) in [4]; 10 µM (inactive) in assay [5]. Further, in assay [6], the GI50 was 1.57 µM (inactive).
Consider `O=C(Nc1c(Cl)cc([N+](=O)[O-])cc1Cl)C(=O)C(C1OC(=O)c2ccccc21)[N+](=O)[O-]` (centres undefined), for which the GI50 in [1] was > 100 µM (inactive); in [2] it was > 100 µM (inactive); in [3], > 100 µM (inactive); in assay [4] it was > 100 µM (inactive); in assay [5] it was 92.3 µM (inactive).
